ChEMBL document CHEMBL4024787, “Target Identification and Mode of Action of Four Chemically Divergent Drugs against Ebolavirus Infection” (J Med Chem, 2018)

What was measured:
[1] = target: T1, Envelope glycoprotein (Zaire ebolavirus (strain Mayinga-76) (ZEBOV) (Zaire Ebola virus)) (UniProt Q05320); test: Binding affinity to Ebola virus Zaire Mayinga-76 recombinant GP protein assessed as change in melting temperature at 500 uM by SYPRO orange dye-based fluorescence assay; settings: 1976
T1 sequence (whole entry): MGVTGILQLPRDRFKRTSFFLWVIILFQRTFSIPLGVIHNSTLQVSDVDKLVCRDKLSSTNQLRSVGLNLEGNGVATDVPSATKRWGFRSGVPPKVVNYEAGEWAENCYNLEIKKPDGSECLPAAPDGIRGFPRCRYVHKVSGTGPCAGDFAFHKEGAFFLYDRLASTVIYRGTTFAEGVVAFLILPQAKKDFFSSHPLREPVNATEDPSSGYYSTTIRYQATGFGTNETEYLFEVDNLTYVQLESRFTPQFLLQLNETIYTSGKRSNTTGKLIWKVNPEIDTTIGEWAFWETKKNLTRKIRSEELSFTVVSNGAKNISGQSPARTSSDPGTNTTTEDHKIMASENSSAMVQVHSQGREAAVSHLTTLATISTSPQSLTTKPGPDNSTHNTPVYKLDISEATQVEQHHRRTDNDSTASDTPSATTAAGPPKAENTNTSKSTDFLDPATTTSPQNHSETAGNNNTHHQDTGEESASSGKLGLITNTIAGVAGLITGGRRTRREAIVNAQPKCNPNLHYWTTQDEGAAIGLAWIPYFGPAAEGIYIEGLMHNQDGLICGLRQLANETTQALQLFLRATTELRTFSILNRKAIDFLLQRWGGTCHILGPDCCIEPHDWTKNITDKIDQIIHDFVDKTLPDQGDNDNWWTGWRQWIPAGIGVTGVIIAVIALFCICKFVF

Envelope glycoprotein = target: T2, Envelope glycoprotein (Zaire ebolavirus (strain Mayinga-76) (ZEBOV) (Zaire Ebola virus), UniProt Q05320); test: Binding affinity to Ebola virus Zaire Mayinga-76 recombinant GP protein by SYPRO orange dye-based fluorescence assay; set-up: species or system 1976
T2 sequence (Q05320 whole entry): T1 sequence (whole entry)

Ebolavirus [2] = test: microbe, parasite or virus in culture; type: functional; settings: Orthoebolavirus, Vero C1008, 48 h
Ebolavirus [3] = test: microbe, parasite or virus in culture; type: functional, cell-based; settings: Orthoebolavirus, HepG2, 48 h

Row | SMILES | ΔTm [1] [°C] | Kd (Envelope glycoprotein) [µM] | IC50 (Ebolavirus [2]) [µM] | IC50 (Ebolavirus [3]) [µM]
1 | CN1[C@@H]2CC[C@@H]1CC(OC(c1ccccc1)c1ccccc1)C2 (relative stereo) | -6 |  |  | 
2 | CC(C)COCC(CN(Cc1ccccc1)c1ccccc1)N1CCCC1 (configuration not stated) [BEPRIDIL] | -6 | 290 | 5.08 | 3.21
3 | Fc1ccc([C@@H]2CCNC[C@H]2COc2ccc3c(c2)OCO3)cc1 [PAROXETINE] | -4 | 650 | 7.45 | 1.38
4 | CN[C@H]1CC[C@@H](c2ccc(Cl)c(Cl)c2)c2ccccc21 [SERTRALINE] | -3 |  |  | 
5 | CN(C)CCOc1ccc(/C(=C(/CCCl)c2ccccc2)c2ccccc2)cc1 [TOREMIFENE] |  |  | 0.162 | 0.026
